Data as given in patent US9765381B2, “Mutated genes for the catalytic protein of oplophorus luciferase and use thereof” (JNC Corporation, priority 2013, dated 2017).

Legend:
[1] = Substrate specificities for amino-terminal deleted nanoKAZ; assay type: biochemical; details: for luminescence activity higher than that of coelenterazine: as luminescence substrate of the luciferase mutant, general description; for Relative luminescence activity (Imax) 6h-f-CTZ: substrate 6h-f-coelenterazine; for Relative luminescence activity (Imax) 6h-f-CTZ / Relative luminescence activity (Imax) bis-CTZ / Relative luminescence activity (Imax) f-CTZ / Relative luminescence activity (Imax) h-CTZ: relative to nanoKAZ with CTZ; for Relative luminescence activity (Imax) bis-CTZ: substrate bis-coelenterazine; for Relative luminescence activity (Imax) CTZ: substrate coelenterazine (CTZ), culture medium of CHO-K1, pcDNA3 vectors, nanoKAZ with CTZ = 1.00; for Relative luminescence activity (Imax) f-CTZ: substrate f-coelenterazine; for Relative luminescence activity (Imax) h-CTZ: substrate h-coelenterazine
Experimental: The enzyme solutions of amino-terminal deleted nanoKAZ used for substrate specificity studies were prepared by the method described in EXAMPLE 12, using pcDNA3 vectors (pcDNA3-ΔN2T-nKAZ, pcDNA3-ΔN3L-nKAZ, pcDNA3-ΔN4E-nKAZ, pcDNA3-ΔN5D-nKAZ and pcDNA3-ΔN6F-nKAZ) for expression of the amino-terminal deletions, which were obtained by the method described in EXAMPLE 11. After transfection to CHO-K1 cells and then incubation for 48 hours, the culture medium were collected and stored in a frozen state. The coelenterazine analogues used for substrate specificity studies were synthesized by the methods described in publications, respectively. Specifically, coelenterazine (CTZ), h-coelenterazine (h-CTZ) and f-coelenterazine (f-CTZ), 6h-f-coelenterazine (6h-f-CTZ) were synthesized by the method described in Inouye et al (2013) Biochem. Biophys. Res. Commun. 437: 23-28, and bis-coelenterazine (bis-CTZ) was synthesized by the method described in Nakamura et al, (1997) Tetrahedron Lett. 38: 6405-6406.
A luminescence reaction was started by the addition of 2 μL of the freeze-thawed culture medium on ice to 100 μL of TE containing 1 μg of coelenterazine or its analogue. The luminescence activities were measured for 10 seconds using a luminometer (manufactured by Atto Inc.: AB2200), and the maximum intensity of luminescence (Imax) of nanoKAZ was shown as a relative luminescence activity using coelenterazine as a substrate.

[2] = system: pcDNA3-nanoKAZ/CHO-K1 stable expressed cell line; assay: Secretory inhibition by brefeldin A, nanoKAZ without secretory signal peptide sequence; assay type: cell-based, Chinese hamster; details: brefeldin A 5 μg/mL, 0-6 hours, FIG. 4
Experimental: (§1) Using the stable expressed cell lines established in EXAMPLE 14 and EXAMPLE 15, the effect of brefeldin A that inhibits exocytosis through the trans-Golgi network by the vesicle-mediated transport was compared. Specifically, each stable expressed cell lines with 2×10^5 cells were seeded to a 6-well plate in 3 mL of Ham's F-12 medium containing 10% FBS, respectively; followed by incubation at 37° C. in a 5% CO2 incubator for 48 hours. After washing twice with 3 mL of Ham's F-12 medium containing 10% FBS, brefeldin A (manufactured by Wako Pure Chemical Industries, Ltd.) was added to the culture medium at a final concentration of 5 μg/mL. As a control experiment, cells were cultured in the absence of brefeldin A. The luminescence activity in the culture medium was determined at each incubation times at 0, 1, 3 and 6 hours, using coelenterazine as a substrate.

[3] = system: pcDNA3-GLsp-nanoKAZ/CHO-K1 stable expressed cell line; assay: Secretory inhibition by brefeldin A, nanoKAZ with secretory signal peptide sequence; assay type: cell-based, Chinese hamster; details: brefeldin A 5 μg/mL, 0-6 hours, compared to absence of brefeldin A, FIG. 3
Experimental: as §1

[4] = system: CHO-K1 cells; assay: Luminescence activity of amino-terminal deleted nanoKAZ expressed in animal cultured cells (culture medium and cell extracts); assay type: cell-based, Chinese hamster; details: coelenterazine; for Relative luminescence activity (%, Imax) pcDNA3- Cell extracts / Relative luminescence activity (%, Imax) pcDNA3- Culture medium: lacking secretory signal peptide; for Relative luminescence activity (%, Imax) pcDNA3- Cell extracts / Relative luminescence activity (%, Imax) pcDNA3-GLsp- Cell extracts: CHO-K1, cell extracts; for Relative luminescence activity (%, Imax) pcDNA3- Culture medium / Relative luminescence activity (%, Imax) pcDNA3-GLsp- Culture medium: CHO-K1, culture medium; for Relative luminescence activity (%, Imax) pcDNA3-GLsp- Cell extracts / Relative luminescence activity (%, Imax) pcDNA3-GLsp- Culture medium: with Gaussia luciferase secretory signal peptide
Experimental: Chinese hamster ovary cell line CHO-K1 was cultured in Ha F-12 medium (manufactured by Wako Pure Chemical Industries, Ltd.) supplemented with 10% (v/v) fetal bovine serum (manufactured by Biowest Inc.) (hereinafter sometimes referred to as Ham's F-12 medium). The CHO-K1 cells were seeded in a 6-well plate in 1×10^5 cells/well/2 mL medium (n=2) and cultured in an incubator at 37° C. in 5% (v/v) CO2. After 24 hours, the purified recombinant plasmid was transfected to CHO-K1 cells using a FuGene HD transfection kit (manufactured by Promega Corp.) and the cells were provided for subsequent experiment. Specifically, 1 μg of the recombinant plasmid, 0.1 μg of the internal standard vector pGL4.13 [Luc2/sv40] and 3 μL of FuGene HD were added to 100 μL of the medium and allowed to stand at room temperature for 15 minutes. Subsequently, 100 μL, of the DNA-FuGene complex was added to the cells in the 6-well plate. After incubation for 44 hours, the culture medium was collected. On the other hand, the cells expressed the KAZ mutants were washed 3 times with 3 mL of 1×PBS, then suspended in 1 mL of 1×PBS and disrupted by sonication on ice. The resultant cell extracts of nanoKAZ deletion mutants was used as enzyme solutions.
Culture media containing the secreted amino-terminal deleted nanoKAZ and cell extracts of amino-terminal deleted nanoKAZ as the enzyme solutions were prepared in the same manner as in EXAMPLE 10.
After adding of 5 μL each of the culture media and cell extracts obtained in EXAMPLE 10 and EXAMPLE 12, respectively, to 100 μL of TE containing 1 μg of coelenterazine (manufactured by JNC Corp.), a luminescence reaction was started. The luminescence activity was measured for 60 seconds using a luminometer (manufactured by Atto Inc.: AB2200), and the maximum intensity of luminescence (Imax) was given as a percentage (%).

[5] = Luminescence activity of amino-terminal deleted nanoKAZ and ZZ-fused amino-terminal deleted nanoKAZ in crude enzyme solution; assay type: biochemical; details: expressed in E. coli BL21, crude enzyme solution, coelenterazine substrate, nanoKAZ = 100; for Relative luminescence activity (%, Imax) pCold-ZZ-P-: ZZ-fused (pCold-ZZ-P- vector); for Relative luminescence activity (%, Imax) pCold-: pCold- vector
Experimental: In order to express the amino-terminal deleted nanoKAZ in E. coli, the recombinant plasmid obtained in EXAMPLE 4 was used. The E. coli BL21 strain (Novagen, Madison, Wis.) was used as a host cell. The BL21 strain carrying the recombinant plasmid was incubated in 5 mL of Luria-Bertani medium (hereinafter designated as LB medium) containing ampicillin (50 μg/mL) at 37° C. for 18 hours. The seed culture of 0.1 mL was inoculated to 10 mL of LB medium and incubated for 3 hours, followed by cooling in an ice-water bath for 1 hour. IPTG was added to the culture medium at a final concentration of 0.1 mM, followed by incubation at 15° C. for further 17 hours. After completion of the incubation, 1 mL of the culture medium was collected by centrifugation at 10,000 rpm for 2 minutes. The collected E. coli cells were suspended in 0.5 mL of 30 mM Tris-HCl (pH 7.6)-10 mM EDTA (manufactured by Wako Pure Chemical Industries, Ltd.) (hereinafter designated as TE). The E. coli cells were disrupted by sonication for 3 seconds using a Branson model 250 sonifire (Danbury, Conn.) to give a crude enzyme solution. Then, 5 μL of the crude enzyme solution was analyzed by SDS-PAGE to confirm the protein expression (FIG. 1).
To express the ZZ-fused amino-terminal deleted nanoKAZ in E. coli, the recombinant plasmid obtained in EXAMPLE 6 was used. Crude enzyme solutions were prepared using a similar manner to EXAMPLE 5 using the E. coli BL21 strain (Novagen, Madison, Wis.) as a host cell. Then, 5 μL of the crude enzyme solution obtained was subjected to SDS-PAGE analysis to confirm the protein expression (FIG. 2).
The crude enzyme solutions obtained in EXAMPLE 5 and EXAMPLE 7 were allowed to stand in an ice-water for over 1 hour and then diluted to 50-fold in TE. By addition of 1 μL each of the crude enzyme solutions to 100 μL of TE containing 1 μg of coelenterazine (manufactured by JNC Corp.), a luminescence reaction was started. The luminescence activity was measured for 60 seconds using a luminometer (manufactured by Atto AB2200); the maximum intensity of luminescence (Imax) is given as a percentage (%).

Compound | luminescence activity higher than that of coelenterazine [1] | secretion of nanoKAZ into the culture medium in the presence of brefeldin A [2] | secretion of nanoKAZ into the culture medium in the presence of brefeldin A [3] | Relative luminescence activity (Imax) 6h-f-CTZ [1] | Relative luminescence activity (Imax) bis-CTZ [1] | Relative luminescence activity (Imax) CTZ [1] | Relative luminescence activity (Imax) f-CTZ [1] | Relative luminescence activity (Imax) h-CTZ [1] | Relative luminescence activity (%, Imax) pcDNA3- Cell extracts [4] | Relative luminescence activity (%, Imax) pcDNA3- Culture medium [4] | Relative luminescence activity (%, Imax) pcDNA3-GLsp- Cell extracts [4] | Relative luminescence activity (%, Imax) pcDNA3-GLsp- Culture medium [4] | Relative luminescence activity (%, Imax) pCold-ZZ-P- [5] | Relative luminescence activity (%, Imax) pCold- [5] | activity compared with nanoKAZ (in words) ([1]; substrates bis-CTZ, 6h-f-CTZ, h-CTZ and f-CTZ)
O=c1c(Cc2ccc(F)cc2)nc2c(Cc3ccccc3)[nH]c(-c3ccccc3)cn1-2 [6h-f-coelenterazine, reference compound] | approximately 10 times |  |  |  |  |  |  |  |  |  |  |  |  |  | 
C[C@H]1CCC/C=C/[C@@H]2C[C@H](O)C[C@H]2[C@H](O)/C=C/C(=O)O1 [brefeldin A] |  | secreted | markedly inhibited |  |  |  |  |  |  |  |  |  |  |  | 
O=c1c(Cc2ccc(F)cc2)nc2c(Cc3ccccc3)[nH]c(-c3ccc(O)cc3)cn1-2 [f-CTZ, f-coelenterazine, reference compound] | 10 times |  |  |  |  |  |  |  |  |  |  |  |  |  | 
Oc1ccc(-c2cn3c(O)c(Cc4ccccc4)nc3c(Cc3ccccc3)n2)cc1 [h-CTZ, h-coelenterazine, reference compound] | 10 times |  |  |  |  |  |  |  |  |  |  |  |  |  | 
bis-coelenterazine [reference compound] | approximately 10 times |  |  |  |  |  |  |  |  |  |  |  |  |  | 
nanoKAZ: mutated 19 kDa catalytic protein of Oplophorus luciferase with 16 mutations, amino acid sequence SEQ ID NO: 2 [reference compound] |  |  |  | 7.00 | 6.93 | 1.00 | 12.65 | 11.76 | 29.4% | 100% | 4.8% | 100% | 100% | 100% | 
ΔN2T-nKAZ: nanoKAZ (SEQ ID NO: 2) with deletion of the phenylalanine residue at the first amino acid; SEQ ID NO: 4 |  |  |  | 8.02 | 8.99 | 1.03 | 15.04 | 13.38 | 23.3% | 93.4% | 3.4% | 97.0% | 93.4% |  | higher activity than nanoKAZ
ΔN3L-nKAZ: nanoKAZ with 2 amino-terminal amino acids deleted; SEQ ID NO: 6 |  |  |  | 5.25 | 5.39 | 0.50 | 9.88 | 9.39 | 16.2% | 50.6% | 4.4% | 87.7% | 82.0% |  | 
ΔN4E-nKAZ: nanoKAZ with 3 amino-terminal amino acids deleted; SEQ ID NO: 8 |  |  |  | 0.36 | 0.35 | 0.05 | 0.70 | 0.58 | 9.7% | 4.6% | 2.9% | 60.5% | 74.0% |  | 
ΔN5D-nKAZ: nanoKAZ with 4 amino-terminal amino acids deleted; SEQ ID NO: 10 |  |  |  | 0.01 | 0.01 | 0.01 | 0.02 | 0.01 | 1.5% | 0.1% | 1.7% | 56.2% | 73.6% | 87.0% | 
